Assay results published in PMC4523432 (Molecular oncology, 2015).

Target: T1, Musashi-1 (MSI1) (Mus musculus, UniProt Q61474)
T1 sequence (Q61474 20-107): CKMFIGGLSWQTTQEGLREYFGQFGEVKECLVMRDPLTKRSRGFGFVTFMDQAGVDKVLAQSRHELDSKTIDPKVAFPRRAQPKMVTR
Assay: SPR on immobilized GB1-RBD1, 1H-15N HSQC NMR titration
Format: binding

Cc1cc2c(C(C)C)c(O)c(O)c(C=O)c2c(O)c1-c1c(C)cc2c(C(C)C)c(O)c(O)c(C=O)c2c1O [(–)-G, (–)-gossypol]
Ki: 476 ± 273 nM
